In patent US8193384B2, “Polymer-bound phosphitylating reagents for the synthesis of organophosphorus compounds” (priority 2005, dated 2012):

Experiments:
[1] = system: complementary chains of modified and unmodified ODNs; assay: Thermal denaturation studies (UV melting, Tm) of ODN duplexes; type: binding; details: for Tm: modified oligomer bound to its complementary unmodified oligomer
[2] = system: mismatched 12-mer modified or unmodified ODNs of 3′-d(CCCCCCCCCCCC); assay: Base-discriminating properties: UV melting with mismatched ODNs; type: binding; details: with mismatched 12-mer modified or unmodified 3′-d(CCCCCCCCCCCC)

Substance | Tm [1] [°C] | ΔTm [1] | also measured
Modified d(AAAAAAAAAAAA) (SEQ ID NO: 1) Containing Diphosphodiester Internucleotide Linkage (DNA, backbone not given here; contains diphosphodiester internucleotide linkage(s), further chemistry not fully specified) [Compound 13] | 39.7 | – | melting transition [2]: no melting transition was observed
Modified d(ATATATATATAT) (SEQ ID NO: 5) Containing Diphosphodiester Internucleotide Linkage (DNA, backbone not given here; contains a diphosphodiester internucleotide linkage) [Compound 17] | – | +1.8 °C | –
Modified d(GGGGGGGGGGGG) (SEQ ID NO: 4) Containing Diphosphodiester Internucleotide Linkage [Compound 16] | – | – | binding affinity towards modified 3′-d(CCCCCCCCCCCC) compared with unmodified 3′-d(CCCCCCCCCCCC) [1]: higher binding affinity
Modified d(TATATATATATA) (SEQ ID NO: 6) Containing Diphosphodiester Internucleotide Linkage (DNA, backbone not given here; contains a diphosphodiester internucleotide linkage) [Compound 18] | – | +3.2 °C | –
Modified d(TTTTTTTTTTTT) (SEQ ID NO: 2) Containing Diphosphodiester Internucleotide Linkage (diphosphodiester internucleotide linkage) [Compound 14] | 39.5 | – | –
